# Results reported in ChEMBL document CHEMBL5726083, “Perfluorinated cyclopropyl fused 1,3-oxazin-2-amine compounds as beta-secretase inhibitors and methods of use” (2017).
# Target: Cathepsin D (Homo sapiens, UniProt P07339)
# Assay: In Vitro Enzymatic FRET Assay: Recombinant Cat D was expressed in CHO cells. The assay buffer for CathepsinD is 0.05 M citrate pH 3.5, 10% DMSO final, 5 mM CHAPS. The Cat D enzyme (9 nM) is pre-incubated for one hour with inhibitors, typically in about 1 uL of DMSO according to a serial dilution, is added thereto. The assays are effectively started by the addition of different FRET substrates (20 nM for Cat D) and the combination is incubated for one hour. The FRET assay is terminated with by addition of Tris buffer, which raises the pH to neutrality, and the fluorescence is determined. The FRET substrate is a peptide with commercially available fluorophore and quencher, on opposite sides of the BACE cleavage site. […] Proteolytic cleavage of the FRET substrate releases quenching of fluorescence (Cat D excitation 500 nm and emission 580 nm).
# Assay type: cell-based
# Cathepsin D, sequence (P07339 65-162 limits assumed): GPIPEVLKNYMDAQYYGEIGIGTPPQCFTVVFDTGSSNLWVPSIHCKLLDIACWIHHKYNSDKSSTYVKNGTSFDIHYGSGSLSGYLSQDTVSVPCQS
# Cathepsin D, sequence (P07339 169-412 limits assumed): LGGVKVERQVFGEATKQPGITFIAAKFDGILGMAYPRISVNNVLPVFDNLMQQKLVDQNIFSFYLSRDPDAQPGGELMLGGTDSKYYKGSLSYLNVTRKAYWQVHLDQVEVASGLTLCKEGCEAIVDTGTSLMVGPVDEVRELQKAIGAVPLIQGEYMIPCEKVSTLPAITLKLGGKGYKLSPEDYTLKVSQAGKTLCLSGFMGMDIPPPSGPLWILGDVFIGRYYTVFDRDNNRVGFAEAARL
row,SMILES,IC50
1,Cc1cc(OC(F)F)cnc1C(=O)Nc1ccc(Cl)c(C2(C(F)F)N=C(N)O[C@@H]3C[C@@H]32)c1 (some centres not stated),958 µM
2,NC1=N[C@](CF)(c2cc(NC(=O)c3ccc(Cl)cn3)cc(F)c2F)[C@H]2CC2O1 (mixture of isomers),229 µM
